These results are taken from paper PMC8421423, “Cellular model system to dissect the isoform-selectivity of Akt inhibitors” (Nature Communications, 2021).

The subject of data set [1] is pAkt^S473 and downstream targets in Ba/F3 myr-Akt3. The data set can be described thus: Western blot analysis, Ba/F3 myr-Akt3 cells. Type of data set: cell-based, murine. To be noted: Ba/F3 myr-Akt3, 4-h treatment. On the technique in general: In western blotting, separated proteins are transferred to a membrane and probed.
Description: Cells were seeded into six-well tissue culture plates (Sarstedt) (BaF3 myr-Akt1/2/3: 10^6 cells/well, PANC1: 250.000 cells/well). After 24 h incubation, cells were treated with various concentrations of inhibitors or DMSO and incubated for additional 4.5 h before cells were washed twice with ice-cold PBS. Cell lysis was initiated by addition of 100 μL RIPA buffer (Cell Signaling Technology) per well supplemented with phosphatase and protease inhibitor cocktails (Sigma) followed by incubation on ice for 20 min. Cells were then harvested by scraping (PANC1) or centrifugation (BaF3). Whole cell lysates were cleared by centrifugation at 14,000×g/4 °C for 10 min and transferred into fresh, pre-cooled microcentrifuge tubes. Protein concentrations were determined using the Pierce BCA protein assay (Thermo) as per manufacturer’s instructions. Equal amounts of protein were separated by SDS-PAGE and transferred to Immobilon-FL PVDF membranes (Merck Millipore) using Pierce™ 1-step transfer buffer (Thermo) and the Pierce™ Power Blotter (Thermo). Membranes were washed for 5 min with ddH2O, blocked with Intercept®Blocking Buffer TBS (Li-Cor) for 1 h at room temperature, and then incubated with primary antibodies diluted in Intercept®Blocking Buffer TBS overnight at 4 °C with gentle agitation. […]
Data set [2] concerns pAkt^S473 and downstream targets in Ba/F3 myr-Akt1. To be noted: Ba/F3 myr-Akt1, 4-h treatment.
A further data set concerns Ba/F3^myr-Akt1 cells. In words: CellTiter-Glo cell viability assay. To be noted: for cell viability: CTG; for viability at 0.0001 µM: read-out: cell viability, CTG, myr-Akt1, 0.1 nM, single replicates; for viability at 5 µM: read-out: cell viability, CTG, myr-Akt1, 5000 nM, single replicates. (Cellular ATP, detected with luciferase, serves as a proxy for viable cell number.)

In a further data set the test system is Ba/F3^myr-Akt3 cells. In words: CellTiter-Glo cell viability assay. To be noted: for cell viability: CTG; for viability at 5 µM: read-out: cell viability, CTG, myr-Akt3, 5000 nM, single replicates.
Data set [3] can be described thus: CellTiter-Glo cell viability assay. To be noted: mouse; for viability at 3 days, 5 µM: 5000 nM. The format is cell-based, murine.
For the next data set, the system named is parental Ba/F3 cells. The data set can be described thus: CellTiter-Glo cell viability assay. Type of data set: cell-based, murine. To be noted: for cell viability: CTG, parental.
In another data set the target is Akt1 (Homo sapiens, UniProt P31749). In words: STK HTRF KinEASE activity-based assay (IC50). To be noted: biochemical activity based assay, log units. A general note: In TR-FRET formats the signal depends on donor and acceptor labels being close together.
The test system of another data set is Ba/F3^myr-Akt2 cells. The data set can be described thus: CellTiter-Glo cell viability assay.
The mark [4] stands for this setting: myr-Akt1, 0.1 nM, single replicates, 0.0001 µM.
Where [5] appears, read: myr-Akt1, 5000 nM, single replicates, 5 µM.
Setting [6] is: Mus musculus, read-out: CTG BaF3myr-Akt1, Mean, mean of replicates.
Where [7] appears, read: Mus musculus, read-out: CTG BaF3myr-Akt1, individual determinations, single replicates.
The mark [8] stands for this setting: read-out: CTG BaF3myr-Akt1, individual determinations, single replicates.
The mark [9] stands for this setting: myr-Akt3, 0.1 nM, single replicates, 0.0001 µM.
Setting [10] is: myr-Akt3, 5000 nM, single replicates, 5 µM.
The mark [11] stands for this setting: Mus musculus, read-out: CTG BaF3myr-Akt3, individual determinations, single replicates.
Setting [12] is: read-out: CTG BaF3myr-Akt3, individual determinations, single replicates.
[13] abbreviates: 0.1 nM, single replicates, 0.0001 µM.
Setting [14] is: 5000 nM, single replicates, 5 µM.
Setting [15] is: cell viability assay Ba/F3 myr-Akt cells, log units.
Where [16] appears, read: Mus musculus, BaF3, parental cells, mean of replicates, read-out: CTG BaF3, Mean.
Setting [17] is: Mus musculus, BaF3, parental cells, single replicates, read-out: CTG BaF3, individual determinations.
Setting [18] is: parental cells, single replicates, read-out: CTG BaF3, individual determinations.

Molecules are shown by their SMILES. “And” between values parts separate entries of the source, which are not always exact repeats. Equal values may be shown once. Read-outs that look alike come from different tables or passages of the source. Some results are limits rather than exact numbers.

Sequence of Akt1 (P31749 whole entry): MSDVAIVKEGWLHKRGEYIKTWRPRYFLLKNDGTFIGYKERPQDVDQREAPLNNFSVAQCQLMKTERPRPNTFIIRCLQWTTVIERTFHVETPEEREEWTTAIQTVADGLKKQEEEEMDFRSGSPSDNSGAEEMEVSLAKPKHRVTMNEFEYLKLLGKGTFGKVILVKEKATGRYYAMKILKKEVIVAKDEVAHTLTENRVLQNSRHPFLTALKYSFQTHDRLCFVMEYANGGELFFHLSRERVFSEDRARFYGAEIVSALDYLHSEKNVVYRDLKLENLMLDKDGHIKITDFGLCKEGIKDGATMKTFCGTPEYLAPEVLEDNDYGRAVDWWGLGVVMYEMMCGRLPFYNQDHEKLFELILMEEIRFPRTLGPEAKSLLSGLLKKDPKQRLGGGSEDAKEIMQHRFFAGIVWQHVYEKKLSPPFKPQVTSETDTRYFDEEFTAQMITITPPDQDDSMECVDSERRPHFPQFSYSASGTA

By viability is commonly meant a read-out of living cells in per cent, often relative to untreated cells. As to `C=CC(=O)Nc1ccc2[nH]c(=O)n(C3CCN(Cc4ccc(-c5nc6cc[nH]c(=O)c6cc5-c5ccccc5)cc4)CC3)c2c1` [Borussertib, reference compound], the “pAkt and downstream targets (immunoblot)” value in data set [1] and in data set [2] was “dose-dependent reduction of pAkt” in each case. For the same molecule, the cell viability was 99.2 % of control and 105.4 % of control in the data set on Ba/F3^myr-Akt1 cells (setting [4]); 3.1 % of control and 7.0 % of control and 4.5 % of control in the data set with Ba/F3^myr-Akt1 cells (setting [5]); 96.6 % of control and 95.9 % of control in the data set with Ba/F3^myr-Akt3 cells (setting [9]); 70.7 % of control and 65.0 % of control with Ba/F3^myr-Akt3 cells (setting [10]); 106.4 % of control and 91.0 % of control in the data set with parental Ba/F3 cells (setting [13]); 102.2 % of control and 91.4 % of control with parental Ba/F3 cells (setting [14]). In addition, the EC50 with Ba/F3^myr-Akt1 cells (setting [6]) was 0.44 µM; in the data set on Ba/F3^myr-Akt1 cells (setting [7]), 0.341 µM; in the data set with Ba/F3^myr-Akt1 cells (setting [8]), 0.491 µM and 0.488 µM; with Ba/F3^myr-Akt3 cells (Mus musculus, read-out: CTG BaF3myr-Akt3, Mean, mean of replicates), 6.84 µM; with Ba/F3^myr-Akt3 cells (setting [11]), 6.16 µM; in the data set on Ba/F3^myr-Akt3 cells (setting [12]), 6.18 µM and 7.62 µM and 7.38 µM. Also, the EC50 was 20.1 µM with parental Ba/F3 cells (Mus musculus, BaF3, read-out: CTG BaF3, Mean, parental cells, mean of replicates); 16.8 µM and 10.9 µM and 24.4 µM in the data set with parental Ba/F3 cells (read-out: CTG BaF3, individual determinations, parental cells, single replicates). In addition, the viability at 0.0001 µM in the data set on Ba/F3^myr-Akt1 cells (Mus musculus) was found to be 90%. Also, the viability at 5 µM in the data set on Ba/F3^myr-Akt3 cells (Mus musculus) stood at 73.8%. Moreover, the viability at 3 days, 0.0001 µM in data set [3] (CTG, parental, 0.1 nM, single replicates, read-out: cell viability) turned out to be 98.5%. In data set [3] (CTG, parental, single replicates), the viability at 3 days, 5 µM is 108%.
Take `C=CC(=O)Nc1ccc2[nH]c(=O)n(C3CCN(Cc4ccc(-c5nc(C)c(=O)[nH]c5-c5ccccc5)cc4)CC3)c2c1` [15a, reference compound]: the “pAkt and downstream targets (immunoblot)” value in data set [2] is “more potent towards myr-Akt1 than myr-Akt2 and myr-Akt3”. In addition, the EC50 was 7.21 µM in the data set with Ba/F3^myr-Akt1 cells (setting [6]); 7.37 µM in the data set with Ba/F3^myr-Akt1 cells (setting [7]); 7.33 µM and 7.9 µM and 6.25 µM in the data set with Ba/F3^myr-Akt1 cells (setting [8]); more than 30 µM with Ba/F3^myr-Akt3 cells (setting [11]); > 30 µM (2×) and 17.8 µM in the data set with Ba/F3^myr-Akt3 cells (setting [12]); more than 30 µM in the data set on parental Ba/F3 cells (Mus musculus, BaF3, CTG, parental BaF3 cell line, read-out: EC50 BaF3). In addition, the EC50 is more than 30 µM in the data set with parental Ba/F3 cells (setting [16]); more than 30 µM in the data set with parental Ba/F3 cells (setting [17]); more than 30 µM in the data set with parental Ba/F3 cells (setting [18]); 14.9 µM in the data set on Ba/F3^myr-Akt2 cells (Mus musculus, read-out: CTG BaF3myr-Akt2, Mean, mean of replicates); 13.5 µM and 21.4 µM and 14.1 µM and 10.4 µM in the data set on Ba/F3^myr-Akt2 cells (read-out: CTG BaF3myr-Akt2, individual determinations, single replicates). Also, the viability at 0.0001 µM with Ba/F3^myr-Akt1 cells (Mus musculus) is 107%; with Ba/F3^myr-Akt3 cells (Mus musculus, read-out: cell viability, CTG, myr-Akt3, 0.1 nM, single replicates), 105%; in the data set on Ba/F3^myr-Akt2 cells (Mus musculus, read-out: cell viability, CTG, myr-Akt2, 0.1 nM, single replicates), 100%. Moreover, the viability at 5 µM with Ba/F3^myr-Akt1 cells (Mus musculus) is 72.2%; in the data set with Ba/F3^myr-Akt3 cells (Mus musculus), 99.8%; in the data set with Ba/F3^myr-Akt2 cells (Mus musculus, read-out: cell viability, CTG, myr-Akt2, 5000 nM, single replicates) it was 96.1%. Besides, the “Log ratio EC50 [Akt] / EC50 [Akt], Akt1 / Akt2” value in the data set with Ba/F3^myr-Akt1 cells (setting [15]) was -0.31. In addition, in the data set on Ba/F3^myr-Akt3 cells (setting [15]), the “Log ratio EC50 [Akt] / EC50 [Akt], Akt3 / Akt2” value is listed as -0.26. Further, the viability at 3 days, 0.0001 µM in data set [3] (cell viability) amounted to 107%. The “Log ratio IC50 [Akt] / IC50 [Akt], Akt1 / Akt2” value at Akt1 is -2.52.
For `C=CC(=O)Nc1ccc2[nH]c(=O)n(C3CCN(Cc4ccc(-c5[nH]c(=O)c(CC(C)C)nc5-c5ccccc5)cc4)CC3)c2c1` [16b, reference compound], in data set [1], the “pAkt and downstream targets (immunoblot)” value is recorded as “preferential binding”. In addition, the cell viability with Ba/F3^myr-Akt1 cells (setting [4]) is 105.6 % of control; in the data set with Ba/F3^myr-Akt1 cells (setting [5]), 102.7 % of control and 99.1 % of control; with Ba/F3^myr-Akt3 cells (setting [9]), 96.8 % of control; in the data set on Ba/F3^myr-Akt3 cells (setting [10]), 61.2 % of control; with parental Ba/F3 cells (setting [13]) it was 102.9 % of control and 116.0 % of control and 91.9 % of control; with parental Ba/F3 cells (setting [14]), 99.0 % of control and 116.0 % of control. Moreover, the EC50 is 29.7 µM in the data set on Ba/F3^myr-Akt1 cells (setting [7]); 29.8 µM and > 30 µM in the data set with Ba/F3^myr-Akt1 cells (setting [8]); > 30 µM and 24.5 µM and 11.4 µM in the data set with Ba/F3^myr-Akt3 cells (setting [12]); 20.1 µM in the data set with parental Ba/F3 cells (setting [16]); 21.6 µM in the data set on parental Ba/F3 cells (setting [17]); 15.9 µM and 22.9 µM in the data set with parental Ba/F3 cells (setting [18]). Moreover, in the data set on Ba/F3^myr-Akt1 cells (Mus musculus), the viability at 0.0001 µM amounted to 99%. Besides, the viability at 5 µM in the data set with Ba/F3^myr-Akt1 cells (Mus musculus) is 102%. Moreover, the viability at 3 days, 5 µM in data set [3] (parental Ba/F3 cells, CTG, parental, single replicates) was 98%.
